Holding throughout (experiment): NCI-60 cell line screen, 48 h
Experiment [1] deals with LOX IMVI melanoma.
For experiment [2], the system named is RPMI-8226 leukemia.
The test system of experiment [3] is MALME-3M melanoma.
The subject of experiment [4] is RXF 393 renal.
Experiment [5] concerns IGROV1 ovarian.
The subject of experiment [6] is UO-31 renal.
In experiment [7] the test system is NCI-H23 lung.
Experiment [8] has as its system SW-620 colon.
The subject of experiment [9] is MOLT-4 leukemia.
The test system of experiment [10] is SF-268 CNS.

Values joined by “and” are separate entries in the source; they are usually repeats but may differ in a detail not shown here. Identical values can stand only once.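 These data come from cells grown in 96-well plates and exposed to compound for 48 hours at five concentrations. GI50 marks 50% less growth. TGI is the concentration that stops growth completely.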

For `NC(=O)C1C(=O)Oc2cccnc21` (stereo not given), the TGI in [1], in [2], in [3], in experiment [4], in [5] and in experiment [6] was more than 100 µM each time. In addition, the TGI in experiment [7], in experiment [8] and in experiment [9] was more than 100 µM each time.
Turning to `CN(C)CCC(/C=C/c1ccccc1)=N\Nc1c(F)c(F)c(F)c(F)c1F`, the TGI in experiment [1], in experiment [2], in experiment [3], in experiment [10], in [4] and in experiment [5] was more than 100 µM throughout. Also, the TGI in experiment [6], in experiment [7], in [8] and in experiment [9] was more than 100 µM throughout.
For the compound `O=C(Cn1ccnc1[N+](=O)[O-])NCc1ccc(F)cc1`, the TGI in experiment [1], in experiment [2], in experiment [3], in experiment [10], in [4] and in [5] was more than 100 µM in each case. Further, the TGI in experiment [6], in experiment [7], in experiment [8] and in experiment [9] was more than 100 µM throughout.
As for `O=c1ccc(=O)c2c1c1[nH]c3ccccc3c1c1c(=O)c3ccccc3c(=O)c21`, the TGI in [1], in experiment [2], in experiment [3], in [10], in experiment [4] and in experiment [5] was more than 10 µM throughout. For the same compound, the TGI in experiment [6] was more than 10 µM; in [7] it was more than 10 µM; in experiment [8], more than 10 µM; in experiment [9] it was 7.55 µM.
With `CC(=O)O[C@H]1C(=O)[C@@]2(C)C([C@H](OC(=O)c3ccccc3)[C@]3(O)C[C@H](OC(=O)[C@H](O)[C@@H](NC(=O)c4ccc(Cl)cc4)c4ccccc4)C(C)=C1C3(C)C)C1(OC(C)=O)CO[C@@H]1C[C@@H]2O` (stereo not given in full), the TGI in experiment [1] is 49.6 µM; in experiment [2] it was 11.7 µM; in experiment [3], 25 µM and 24.1 µM; in experiment [10], 25 µM and 82.5 µM; in experiment [5] it was 25 µM and 28.2 µM; in experiment [6] it was 25 µM and 53.8 µM. Further, the TGI in experiment [7] is 25 µM and > 100 µM; in [8], 25 µM and > 100 µM; in [9], 25 µM and 4.77 µM. Also, the GI50 is 0.0599 µM in experiment [3], 0.157 µM in experiment [4], 0.0134 µM in experiment [5] and 4.77 µM in experiment [6].
Take `COc1ccc(C2=NOC3=c4ccccc4=CSC3=C2c2ccccc2)cc1`: the GI50 in experiment [1] was 44.8 µM; in experiment [2], 25.3 µM; in [3] it was 43.7 µM; in experiment [10], 23.5 µM; in [4] it was 22.2 µM; in experiment [5] it was 45.8 µM. Also, the GI50 in experiment [6] was 39.2 µM; in experiment [7], 46.2 µM; in experiment [8] it was 28.9 µM; in [9], more than 100 µM. The TGI in experiment [1] was more than 100 µM; in experiment [2] it was more than 100 µM; in experiment [3] it was more than 100 µM; in experiment [10] it was 79.6 µM; in experiment [4], 63.7 µM; in experiment [5], more than 100 µM. Also, the TGI in [6], in experiment [7], in experiment [8] and in [9] was more than 100 µM each time.
As for `Clc1cc(Cl)cc(Nc2ccc3c(OCCCN4CCOCC4)cccc3n2)c1`, the GI50 is 1.72 µM in [1]; 2.8 µM in experiment [2]; 2.5 µM in experiment [3]; 3 µM in experiment [10]; 2.26 µM in [4]; 3.9 µM in experiment [5]. Moreover, the GI50 in experiment [6] is 1.51 µM; in experiment [7] it was 2.94 µM; in [8], 1.86 µM; in experiment [9] it was 2.25 µM. Further, the TGI in experiment [1] turned out to be 3.24 µM; in experiment [2], 8.33 µM; in [3], 6.33 µM; in experiment [10], 9.63 µM; in [4], 5.14 µM; in [5], 17.6 µM. For the same compound, the TGI in [6] worked out at 2.94 µM; in experiment [7] it was 10.2 µM; in experiment [8], 3.69 µM; in experiment [9], 5.61 µM.
For `O=[N+]([O-])/C(=C/C=C/c1ccccc1)c1ccccc1`, the GI50 is 1.67 µM in experiment [1]; 0.118 µM in experiment [2]; 1.84 µM in experiment [3]; 2.96 µM in [10]; 1.81 µM in experiment [4]; 1.92 µM in [5]. Also, the GI50 in experiment [6] is 1.46 µM; in [7], 2.25 µM; in experiment [8], 1.79 µM; in [9] it was 1.47 µM. The TGI in experiment [1] is 3.29 µM; in experiment [2], 1.55 µM; in experiment [3] it was 5.4 µM; in experiment [10], 8.93 µM; in experiment [4], 3.84 µM; in experiment [5] it was 4.54 µM. The TGI was found to be 3.19 µM in experiment [6], 6.16 µM in [7], 3.67 µM in experiment [8] and 3.61 µM in experiment [9].
For the compound `COc1cc([C@H]2c3cc4c(cc3[C@H](NCc3ccc(F)cc3)C3COC(=O)[C@H]32)OCO4)cc(OC)c1O` (stereo not given in full), the TGI in experiment [1] was 17 µM; in experiment [2], 18.2 µM; in [3] it was 19.5 µM; in experiment [10], more than 100 µM; in [4], 42.8 µM; in experiment [5], 34 µM. Further, the TGI was determined as 14.9 µM in experiment [6], 6.34 µM in experiment [7], 21.4 µM in [8] and 6.42 µM in experiment [9].
With `Cc1cc2nc3c(C(OC4OC(CO)C(O)C(O)C4O)C(O)CO)nn(-c4ccc(F)cc4)c3nc2cc1C` (stereo not given), the TGI in experiment [1], in [2], in experiment [3], in experiment [10], in experiment [4] and in [6] was more than 100 µM in each case. The TGI in [7] and in [9] was more than 100 µM throughout.
In the case of `COc1ccc(S(=O)(=O)NNS(C)(=O)=O)cc1OC`, the TGI in experiment [1], in experiment [2], in experiment [3], in [10], in experiment [4] and in [5] was more than 100 µM throughout. Moreover, the TGI in experiment [6], in experiment [7], in experiment [8] and in [9] was more than 100 µM throughout.
On to `CSc1ccc2c(c1)N(CCCN(C)C)c1ccccc1S2`, for which the TGI in experiment [1] worked out at 32.4 µM; in [2], 28.5 µM; in experiment [3] it was 22 µM; in experiment [10] it was 27.2 µM; in experiment [4], 22.5 µM; in experiment [5] it was 28 µM. For the same compound, the TGI in experiment [7] came to 31.5 µM; in experiment [8], 41.8 µM; in [9], 20 µM.
In the case of `Fc1nc(Sc2ncnc3nc[nH]c23)nc(-c2c3ccccc3c3sc4ccccc4n23)n1`, the TGI in experiment [1], in [2], in experiment [3], in experiment [10], in [4] and in experiment [5] was more than 100 µM throughout. For the same compound, the TGI in experiment [6], in experiment [7], in experiment [8] and in experiment [9] was more than 100 µM each time.
As for `O=C([CH-]C(=O)c1ccccc1)c1ccccc1.[CH2-]C.[CH2-]C.[Tl+3]`, the GI50 in experiment [1] was 10.4 µM; in experiment [2], 10.4 µM; in experiment [3] it was 21.3 µM; in experiment [10], 18.4 µM; in experiment [4] it was 16.5 µM; in experiment [5], 24.4 µM. Moreover, the GI50 in experiment [6] was 22.3 µM; in experiment [7] it was 32.3 µM; in experiment [8], 26.5 µM; in experiment [9] it was 6.63 µM. The TGI in experiment [1] was 54.7 µM; in [2] it was more than 66 µM; in experiment [3] it was more than 76.7 µM; in [10], more than 100 µM; in experiment [4], 88.7 µM; in experiment [5], more than 100 µM. Besides, the TGI in experiment [6] was more than 77.2 µM; in experiment [7], more than 100 µM; in [8], more than 100 µM; in experiment [9] it was 41.8 µM.
Regarding `CC1(O)CC2C(CC1SCc1ccccc1)C2(C)C` (stereo not given), the TGI was 29.3 µM and 31.5 µM in experiment [1]; 44.9 µM and 51.1 µM in experiment [2]; 44.1 µM and 30.4 µM in experiment [3]; 54.9 µM and 42 µM in [10]; 35.6 µM and 28.6 µM in [4]; > 100 µM and 28.9 µM in experiment [5]. Moreover, the TGI in experiment [6] was > 100 µM and 27.9 µM; in experiment [7], 58.5 µM and 27.4 µM; in [8], 46.8 µM and 32.9 µM; in [9] it was 25.1 µM and 47.7 µM. For the same compound, the GI50 is 38.8 µM and 15.4 µM in [5]; 31.2 µM and 14.5 µM in experiment [6]; 4.09 µM and 18.4 µM in experiment [9].
With `Cc1cccc(NC(=O)CSc2nnc(-c3ccc(N=Cc4ccc(Cl)cc4)cc3)o2)c1`, the TGI in experiment [1], in experiment [2], in experiment [3], in [10], in experiment [4] and in [6] was more than 100 µM throughout. For the same compound, the TGI in [7], in experiment [8] and in experiment [9] was more than 100 µM each time.
As to `O=C(/C=N/O)Nc1cccc(Cl)c1I`, the TGI in experiment [1] is more than 100 µM; in experiment [2] it was more than 100 µM; in experiment [3], more than 100 µM; in experiment [10] it was more than 100 µM; in [4], 74.9 µM; in experiment [5], more than 100 µM. Besides, the TGI in experiment [6] was 78.3 µM; in experiment [7], more than 100 µM; in experiment [8], more than 100 µM; in [9], more than 100 µM.
On to `COc1cc(/C=C/C(=O)/C=C/c2ccc(-n3ccnc3)cc2)ccc1O`, for which the GI50 in experiment [1] was 1.74 µM; in experiment [2] it was 1.54 µM; in experiment [3] it was 5.4 µM; in experiment [10], 3.08 µM; in [4], 1.81 µM; in [6], 1.51 µM. The values for the GI50 in experiment [7], in experiment [8] and in experiment [9] were 2.07 µM, 2.34 µM and 3.22 µM, respectively. For the same compound, the TGI in experiment [1] was determined as 3.19 µM; in [2], 4.46 µM; in [3], 36.7 µM; in experiment [10], 16.2 µM; in experiment [4], 3.42 µM; in [6], 3.15 µM. Moreover, the TGI turned out to be 5.04 µM in [7], 5.78 µM in experiment [8] and 42.8 µM in experiment [9].
As to `O=S1(=O)CS(=O)(=O)OCCCCCO1`, the TGI in experiment [1], in [2], in [3], in experiment [10], in [4] and in [5] was more than 100 µM each time. Also, the TGI in [6], in [7] and in experiment [8] was more than 100 µM throughout.
In the case of `COc1ccc(N=C2C(=O)Nc3ccc(Br)cc32)cc1`, the TGI in [1] was found to be 27.4 µM; in [2] it was 25.2 µM; in experiment [3], 43 µM; in experiment [10], 57.2 µM; in [4], 36.9 µM; in experiment [6], 26.5 µM. The TGI in experiment [7] stood at 45 µM; in experiment [8], 63.8 µM; in experiment [9] it was 74.4 µM.
Turning to `COc1ccc(C2C(C(=O)O)=C(COC(C)=O)Oc3cc4c(cc32)OCO4)c(OC)c1` (stereo not given), the TGI in [1], in experiment [2], in experiment [3], in experiment [4], in experiment [5] and in [6] was more than 100 µM each time. For the same compound, the TGI in [7], in experiment [8] and in experiment [9] was more than 100 µM throughout.
Turning to `COc1ccc(C2NC(c3ccc(OC)cc3)C(C)C(=O)C2C)cc1` (stereo not given), the TGI in experiment [1], in experiment [2], in [3], in [10], in experiment [4] and in experiment [5] was more than 100 µM each time. Moreover, the TGI in [6], in experiment [7] and in [9] was more than 100 µM throughout.

The values are drawn from PubChem BioAssay (NCI).
